Test results from patent US20090030024A1, “THIAZOLES AS FUNGICIDES” (priority 2005, published 2009).
Where two headings read alike, the source gives them in different places. Marks after values point to notes of the source that are not given here.

Experiment: logP determination by retention times (calibration with alkan-2-ones)
Conditions: for logP: HPLC, reversed-phase C 18, EEC Directive 79/831 Annex V.A8, method *: 40° C., 0.1% aqueous formic acid and acetonitrile, linear gradient 10% to 95% acetonitrile

Row | SMILES | chromatographic logP | also measured
1 | Cc1nc(C)c(-c2nc(Cl)ncc2Cl)s1 [2,5-Dichloro-4-(2,4-dimethyl-1,3-thiazol-5-yl)pyrimidine] | – | chromatographic logP (logP(HCOOH), HCOOH): 2.47
2 | Cc1nc2c(s1)C(=O)CCC2 [2-Methyl-7-oxo-4,5,6,7-tetrahydrobenzothiazole] | – | chromatographic logP (logP(HCOOH), HCOOH): 1.08
3 | CC(=O)c1cccc(Nc2nccc(-c3sc(C)nc3C)n2)c1 [Example 2, 1-(3-{[4-(2,4-dimethyl-1,3-thiazol-5-yl)pyrimidin-2-yl]amino}phenyl)ethanone] | 2.14 | –
4 | CC(=O)c1cccc(Nc2nccc(-c3sc(N)nc3C)n2)c1 [Example 4, 1-(3-{[4-(2-amino-4-methyl-1,3-thiazol-5-yl)pyrimidin-2-yl]amino}phenyl)ethanone] | 1.47 | –
5 | CC(=O)c1cccc(Nc2nccc(-c3sc(C4CCCCC4)nc3C)n2)c1 [Example 6, 1-(3-{[4-(2-cyclohexyl-4-methyl-1,3-thiazol-5-yl)pyrimidin-2-yl]amino}phenyl)ethanone] | 4.11 | –
6 | CC(=O)c1cccc(Nc2nccc(-c3sc(C(C)C)nc3C)n2)c1 [Example 10, 1-(3-{[4-(2-isopropyl-4-methyl-1,3-thiazol-5-yl)pyrimidin-2-yl]amino}phenyl)ethanone] | 3.1 | –
7 | CC(=O)c1cccc(Nc2nccc(-c3cnc(C)s3)n2)c1 [Example 11, 1-(3-{[4-(2-methyl-1,3-thiazol-5-yl)pyrimidin-2-yl]amino}phenyl)ethanone] | 2.57 | –
8 | CC(=O)c1cccc(Nc2nccc(-c3sc(N(C)C)nc3C(F)(F)F)n2)c1 [Example 23, 1-[3-({4-[2-(dimethylamine)-4-(trifluoromethyl)-1,3-thiazol-5-yl]pyrimidin-2-yl}amino)phenyl]ethanone] | – | logP: 1.91*
9 | COCc1nc(C)c(-c2ccnc(Nc3cccc(C(C)=O)c3)n2)s1 [Example 24, 1-[3-({4-[2-(methoxymethyl)-4-methyl-1,3-thiazol-5-yl]pyrimidin-2-yl}amino)phenyl]ethanone] | 2.38 | –
10 | CC(=O)c1cccc(Nc2nccc(-c3sc(C)nc3C(F)(F)F)n2)c1 [Example 26, 1-[3-({4-[2-methyl-4-(trifluoromethyl)-1,3-thiazol-5-yl]pyrimidin-2-yl}amino)phenyl]ethanone] | 3.02 | –
11 | CNc1nc(C)c(-c2ccnc(Nc3cccc(C(C)=O)c3)n2)s1 [Example 27, 1-[3-({4-[4-methyl-2-(methylamine)-1,3-thiazol-5-yl]pyrimidin-2-yl}amino)phenyl]ethanone] | – | logP: 1.62*
12 | CSc1nc(C)c(-c2ccnc(Nc3cccc(C(C)=O)c3)n2)s1 [Example 28, 1-[3-({4-[4-methyl-2-(methylthio)-1,3-thiazol-5-yl]pyrimidin-2-yl}amino)phenyl]ethanone] | 2.99 | –
13 | CC(=O)c1cccc(Nc2nccc(-c3sc(NCC4CCCO4)nc3C)n2)c1 (stereo not shown) [Example 39, 1-{3-[(4-{4-methyl-2-[(tetrahydrofuran-2-ylmethyl)amino]-1,3-thiazol-5-yl}pyrimidin-2-yl)amino]phenyl}ethanone] | 1.82 | –
14 | CSc1nc(C)c(-c2ccnc(Nc3ccc(N(C)C)c(Cl)c3)n2)s1 [Example 61, 2-chloro-N1,N1-dimethyl-N4-{4-[4-methyl-2-(methylthio)-1,3-thiazol-5-yl]pyrimidin-2-yl}benzene-1,4-diamine] | 2.74 | –
15 | Cc1nc(C2CC2)sc1-c1ccnc(Nc2ccc(N(C)C)c(Cl)c2)n1 [Example 63, 2-chloro-N4-[4-(2-cyclopropyl-4-methyl-1,3-thiazol-5-yl)pyrimidin-2-yl]-N1,N1-dimethylbenzene-1,4-diamine] | 2.59 | –
16 | Cc1nc(C(C)C)sc1-c1ccnc(Nc2ccc(N(C)C)c(Cl)c2)n1 [Example 64, 2-chloro-N4-[4-(2-isopropyl-4-methyl-1,3-thiazol-5-yl)pyrimidin-2-yl]-N1,N1-dimethylbenzene-1,4-diamine] | 2.72 | –
